The text below walks through data of patent US6974801B2, “Inhibitors and methods of use thereof” (The Trustees of Dartmounth College, priority 2002, dated 2005).

The IC50 is the concentration at which inhibition is half-maximal.

The test system of test [1] is NO production induced by INF-γ in mouse macrophages. Briefly: Inhibition of NO production induced by IFN-γ in mouse macrophages (Griess reaction). It is filed as cell-based. Here is the method: The procedure for determining IC50 on NO production induced by INF-γ in mouse macrophages is as follows. Macrophages were harvested from female mice injected intraperitoneally four days previously with 4% thioglycollate. These cells were seeded in 96-well tissue culture plates and incubated with 4 ng/mL INF-γ in the presence or absence of inhibitory test compounds. After 48 hours NO production, measured as […] by the Griess reaction, was determined. This method is described fully by Ding et al. (1990) and Bogdan and Ding, (1992).
In general terms: Nitrite, measured by Griess reagent, commonly stands in for NO production.

The test system is the same in test [2]. The conditions noted are these: previously reported (Honda et al.); read-out: IC50 (level); cited from earlier work.
For test [3], the system named is human tumor cell lines, mouse 3T3-L1 fibroblasts, mouse macrophages. The following applies: cell culture; previously reported (Suh et al., 1999); cited from earlier work.
Test [4] has as its target T1, peroxisome proliferator-activated receptor γ (PPARγ) (Homo sapiens, UniProt P37231).
T1 sequence (P37231 1-505): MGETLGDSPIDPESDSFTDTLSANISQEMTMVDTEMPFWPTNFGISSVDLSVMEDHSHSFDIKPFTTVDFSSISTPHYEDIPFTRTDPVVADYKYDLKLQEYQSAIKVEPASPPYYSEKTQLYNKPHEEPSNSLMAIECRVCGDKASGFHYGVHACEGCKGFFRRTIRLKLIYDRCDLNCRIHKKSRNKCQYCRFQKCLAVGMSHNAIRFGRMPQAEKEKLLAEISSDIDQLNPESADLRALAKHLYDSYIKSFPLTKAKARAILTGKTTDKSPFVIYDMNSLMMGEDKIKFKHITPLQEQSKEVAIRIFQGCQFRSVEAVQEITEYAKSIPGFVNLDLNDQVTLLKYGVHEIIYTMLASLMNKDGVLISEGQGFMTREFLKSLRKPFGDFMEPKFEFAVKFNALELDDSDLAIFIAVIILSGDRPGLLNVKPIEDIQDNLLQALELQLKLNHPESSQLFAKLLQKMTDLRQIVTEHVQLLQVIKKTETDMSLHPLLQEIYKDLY
The conditions noted are these: Wang et al., 2000; cited from earlier work.

Where [5] appears, read: Mus musculus, Macrophage, 48 h, Table 1; NO production induced by IFN-γ; tested 0.01 pM-1 μM (10-fold dilutions); average of several separate experiments.
[6] abbreviates: Mus musculus, Macrophage; Table 2; NO production induced by IFN-γ, 48 h; tested 0.01 pM-1 μM (10-fold dilutions); average of several separate experiments.
Where [7] appears, read: Mus musculus, Macrophage; Table 1; NO production induced by IFN-γ, 48 h; tested 0.01 pM-1 μM (10-fold dilutions); average of several separate experiments.
The mark [8] stands for this setting: SAR on substituents at C-17, Tables 1-3.

Where two headings read alike, the source gives them in different places.

For `CC1(C)CC[C@]2(C(=O)O)CC[C@]3(C)[C@H](C(=O)C=C4[C@@]5(C)C=C(C#N)C(=O)C(C)(C)[C@@H]5CC[C@]43C)[C@@H]2C1` [CDDO, 2-cyano-3,12-dioxooleana-1,9(11)-dien-28-oic acid], the 50% inhibitory concentration (IC50) was 0.44 nM in test [1] (setting [5]); 0.7 nM in test [1] (Mus musculus, Macrophage, 48 h, Table 3; NO production induced by IFN-γ; tested 0.01 pM-1 μM (10-fold dilutions); average of several separate experiments); roughly 0.1 nM in test [2]. Moreover, the “concentrations at which potencies were found” value in test [3] is 10^−6 to 10^−9 M. Further, the “ligand for PPARγ” value in test [4] was “ligand”.

Turning to `COC(=O)C12CCC(C)(C)CC1C1C(=O)C=C3C4(C)C=C(C(=O)O)C(=O)C(C)(C)C4CCC3(C)C1(C)CC2` (stereo not shown) [methyl 2-carboxy-3,12-dioxooleana-1,9(11)-dien-28-oate], the IC50 in test [2] was roughly 0.1 nM.

In the case of `Cc1cn(C(=O)[C@]23CCC(C)(C)CC2C2C(=O)C=C4[C@@]5(C)C=C(C#N)C(=O)C(C)(C)[C@@H]5CC[C@@]4(C)[C@]2(C)CC3)c(C)n1` (stereo partly shown) [Compound 13], half-maximal inhibition in test [1] (setting [6]) (IC50) was put at 0.1 nM.

Take `CCc1nccn1C(=O)[C@]12CCC(C)(C)CC1C1C(=O)C=C3[C@@]4(C)C=C(C#N)C(=O)C(C)(C)[C@@H]4CC[C@@]3(C)[C@]1(C)CC2` (stereo partly shown) [Compound 11]: in test [1] (setting [6]), half-maximal inhibition (IC50) was put at 0.1 nM.

Compound `CC(=O)OC[C@H]1OC(OC(=O)[C@]23CCC(C)(C)CC2C2C(=O)C=C4[C@@]5(C)C=C(C#N)C(=O)C(C)(C)[C@@H]5CC[C@@]4(C)[C@]2(C)CC3)[C@H](OC(C)=O)C(OC(C)=O)[C@@H]1OC(C)=O` (stereo partly shown) [Compound 2] gave a half-maximal inhibitory concentration (IC50) in test [1] (setting [7]) of 0.07 nM.

For the compound `CC1(C)CC[C@]2(C(N)=O)CC[C@]3(C)[C@H](C(=O)C=C4[C@@]5(C)C=C(C#N)C(=O)C(C)(C)[C@@H]5CC[C@]43C)[C@@H]2C1` [Compound 3], the concentration for half-maximal inhibition (IC50) in test [1] (setting [7]) is 0.098 nM. Besides, the “potency compared with CDDO (SAR statement)” value (shortened to “potency compared with CDDO”) in test [1] (setting [8]) is reported as “greater potency than CDDO”.

Compound `C[C@@H]1C[C@H]2[C@@H]3CCC4=CC(=O)C=C[C@]4(C)[C@@]3(F)[C@@H](O)C[C@]2(C)[C@@]1(O)C(=O)CO` [Dexamethasone, reference compound] returned an IC50 in test [1] (setting [7]) of 0.1 nM.

For the compound `CC1(C)CC[C@]2(C(=O)n3cnc(Br)c3)CC[C@]3(C)C(C(=O)C=C4[C@@]5(C)C=C(C#N)C(=O)C(C)(C)[C@@H]5CC[C@]43C)C2C1` (stereo partly shown) [Compound 15], in test [1] (setting [6]), the half-inhibitory concentration (IC50) was 0.03 nM.

For `CC(=O)OC[C@H]1O[C@@H](OC(=O)[C@]23CCC(C)(C)C[C@H]2[C@H]2C(=O)C=C4[C@@]5(C)C=C(C#N)C(=O)C(C)(C)[C@@H]5CC[C@@]4(C)[C@]2(C)CC3)[C@H](OC(C)=O)C(OC(C)=O)[C@H]1OC(C)=O` (stereo partly shown) [Compound 18], in test [1] (Mus musculus, Macrophage; Table 3; NO production induced by IFN-γ, 48 h; tested 0.01 pM-1 μM (10-fold dilutions); average of several separate experiments), the half-maximal inhibitory concentration (IC50) amounted to 0.05 nM.

Turning to `Cc1cn(C(=O)[C@]23CCC(C)(C)CC2C2C(=O)C=C4[C@@]5(C)C=C(C#N)C(=O)C(C)(C)[C@@H]5CC[C@@]4(C)[C@]2(C)CC3)cn1` (stereo partly shown) [Compound 10, 1-(2-cyano-3,12-dioxooleana-1,9(11)-dien-28-oyl)-4-methylimidazole], in test [1] (setting [8]), the “potency compared with CDDO” value is “greatest potency”.

`CCCc1nccn1C(=O)[C@]12CCC(C)(C)CC1C1C(=O)C=C3[C@@]4(C)C=C(C#N)C(=O)C(C)(C)[C@@H]4CC[C@@]3(C)[C@]1(C)CC2` (stereo partly shown) [Compound 12]: in test [1] (setting [6]), the half-inhibitory concentration (IC50) was determined as 0.02 nM.

Consider `CC1(C)CC[C@]2(C(=O)n3ccnc3-c3ccccc3)CC[C@]3(C)C(C(=O)C=C4[C@@]5(C)C=C(C#N)C(=O)C(C)(C)[C@@H]5CC[C@]43C)C2C1` (stereo partly shown) [Compound 14], for which, in test [1] (setting [6]), 0.05 nM corresponded to half-maximal inhibition (IC50).

With `COC(=O)[C@]12CCC(C)(C)C[C@H]1[C@H]1C(=O)C=C3[C@@]4(C)C=C(C#N)C(=O)C(C)(C)[C@@H]4CC[C@@]3(C)[C@]1(C)CC2` [CDDO methyl ester], the IC50 in test [2] was roughly 0.1 nM.

For `CC1(C)CC[C@]2(C(=O)O)CC[C@]3(C)C(=CC[C@@H]4[C@@]5(C)CC[C@H](O)C(C)(C)[C@@H]5CC[C@]43C)[C@@H]2C1` [Oleanolic acid (OA), Oleanolic acid, reference compound], the IC50 was greater than 40000 nM in test [1] (setting [5]) and greater than 40000 nM in test [1] (Mus musculus, Macrophage, 48 h, Table 2; NO production induced by IFN-γ; tested 0.01 pM-1 μM (10-fold dilutions); average of several separate experiments).

With `CC1(C)CC[C@]2(C#N)CC[C@]3(C)[C@H](C(=O)C=C4[C@@]5(C)C=C(C#N)C(=O)C(C)(C)[C@@H]5CC[C@]43C)[C@@H]2C1` [Compound 1, 2-cyano-3,12-dioxooleana-1,9(11)-dien-28-onitrile], half-maximal inhibition in test [1] (setting [7]) (IC50) required 0.0035 nM. For the same compound, in test [1] (setting [8]), the “potency compared with CDDO” value is listed as “much more potent”.
